According to patent publication US12295967B2, “Pharmaceutical composition for prevention or treatment of flavivirus infection” (priority 2018, dated 2025):
Starred links: 1 amine or outer side, 2 acyl side, 3 side chain; linkers in the order of their positions; H or OH if unused. Positions of bridges follow the written chain, without caps; N, C: chain ends. Non-standard residues stand in square brackets, D forms with d. Residues, ends and D or L forms follow the SMILES beside them. *: point of attachment. hTyr(3S-OH,4S-OH,3'-OSO3H) = N[C@H](C(=O)O)[C@H](O)[C@@H](O)c1ccc(O)c(OS(=O)(=O)O)c1; Orn(4R-OH,5R-OH) = O=C([C@H](C[C@@H](O)[C@@H](O)N[*:3])N[*:1])[*:2]; Pro(3S-OH,4S-Me) = C[C@H]1CN[C@H](C(=O)O)[C@H]1O; X1 = CCCCCOc1ccc(-c2cc(-c3ccc(C(=O)*)cc3)no2)cc1; Gln(3R-OH) = NC(=O)C[C@@H](O)[C@H](N)C(=O)O; Hyp = O=C(O)[C@@H]1C[C@@H](O)CN1

Each molecule was assayed on DENV (assay: DENV viremia reduction in mouse blood, dengue infection model (AG129 mouse)). Conditions: micafungin sodium IP, miltefosine oral, FIG. 5.
Format: in vivo
Procedure: On day 3, blood was collected from each mouse and transferred to an EDTA coated anticoagulant tube. After shaking for 10 minutes and gently mixing, 20 μl of each sample was analyzed by whole blood count using HEMAVET 950FS (Drew Scientific). The measured value of each factor was semi-quantified relative to that of the uninfected control. Plasma was isolated by centrifugation at 8000 g and 4° C. for 15 minutes in order to analyze cytokine hyperemia and expression changes. Plasma virus titer (viremia) and viral RNA expression in whole blood were analyzed by quantitative real-time PCR (qRT-PCR).
For target gene amplification, each primer was designed taking into account overlap between two exons of the target gene having a GC content of less than 50% and an expected amplicon size of about 100 bps. For quantification of viral RNA, quantitative real time PCR (qRT-PCR) was performed. Each reaction was performed in 20 μL volume using SYBR green master mix. Quantstudio 3™ (Applied Biosystems Inc., USA) was used for the present study in two-stage amplification process. […]
Virus in plasma was calculated according to an equation of standard curve. […] For cell-based group and mouse organ samples (including whole blood), semi-quantitative viral RNA was analyzed for GAPDH as an endogenous control. […]

With CCCCCOc1ccc(-c2cc(-c3ccc(C(=O)N[C@H]4C[C@@H](O)[C@@H](O)NC(=O)[C@@H]5[C@@H](O)[C@@H](C)CN5C(=O)[C@H]([C@H](O)CC(N)=O)NC(=O)[C@H]([C@H](O)[C@@H](O)c5ccc(O)c(OS(=O)(=O)O)c5)NC(=O)[C@@H]5C[C@@H](O)CN5C(=O)[C@H]([C@@H](C)O)NC4=O)cc3)no2)cc1 [Micafungin] (X1-[Orn(4R-OH,5R-OH)]T[Hyp][hTyr(3S-OH,4S-OH,3'-OSO3H)][Gln(3R-OH)][Pro(3S-OH,4S-Me)]; lactam 1-C) the dengue viremia was “significantly reduced”.
For CCCCCCCCCCCCCCCCOP(=O)([O-])OCC[N+](C)(C)C [Miltefosine], the dengue viremia was “significantly reduced”.

What follows are molecules tested against T1, dengue virus RdRp (Dengue virus type 2, UniProt P29990) (assay: biochemical). Conditions: dengue virus RdRp enzyme activity; read-out: IC50, inhibitory target enzyme RdRp.
T1 construct: dengue virus RdRp enzyme activity
T1 sequence (P29990 2492-3391): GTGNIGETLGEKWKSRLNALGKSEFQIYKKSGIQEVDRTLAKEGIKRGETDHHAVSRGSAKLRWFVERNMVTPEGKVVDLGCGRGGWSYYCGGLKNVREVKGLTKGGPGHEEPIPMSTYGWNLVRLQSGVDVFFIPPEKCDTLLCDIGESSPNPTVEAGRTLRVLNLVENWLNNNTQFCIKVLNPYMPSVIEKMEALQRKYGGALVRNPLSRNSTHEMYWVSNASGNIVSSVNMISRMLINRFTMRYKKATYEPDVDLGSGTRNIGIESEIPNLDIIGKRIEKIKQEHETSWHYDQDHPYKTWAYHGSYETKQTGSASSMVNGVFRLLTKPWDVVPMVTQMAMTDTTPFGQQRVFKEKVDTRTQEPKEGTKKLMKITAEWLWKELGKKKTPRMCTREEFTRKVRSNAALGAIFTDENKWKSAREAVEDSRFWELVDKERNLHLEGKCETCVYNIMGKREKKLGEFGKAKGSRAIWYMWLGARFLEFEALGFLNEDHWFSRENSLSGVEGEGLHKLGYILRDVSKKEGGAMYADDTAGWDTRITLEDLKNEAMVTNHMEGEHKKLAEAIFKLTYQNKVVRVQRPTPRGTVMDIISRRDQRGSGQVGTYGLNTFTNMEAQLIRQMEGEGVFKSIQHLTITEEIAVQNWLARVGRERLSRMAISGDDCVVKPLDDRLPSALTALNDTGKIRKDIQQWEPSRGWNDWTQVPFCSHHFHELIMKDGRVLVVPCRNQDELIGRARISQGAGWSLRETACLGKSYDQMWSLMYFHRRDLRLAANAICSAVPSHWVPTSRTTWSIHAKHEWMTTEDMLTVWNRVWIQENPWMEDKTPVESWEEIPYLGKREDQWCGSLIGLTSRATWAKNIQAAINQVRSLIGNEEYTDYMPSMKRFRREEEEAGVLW

NCC[C@H](O)C(=O)N[C@@H]1C[C@H](N)[C@@H](O[C@H]2O[C@H](CN)[C@@H](O)[C@H](O)[C@H]2O)[C@H](O)[C@H]1O[C@H]1O[C@H](CO)[C@@H](O)[C@H](N)[C@H]1O [Amikacin] and CN[C@@H]1[C@H](O[C@H]2[C@H](O[C@H]3[C@H](O)[C@@H](O)[C@H](NC(=N)N)[C@@H](O)[C@@H]3NC(=N)N)O[C@@H](C)[C@]2(O)CO)O[C@@H](CO)[C@H](O)[C@H]1O [Dihydrostreptomycin] are within 1.5-fold of each other in IC50: 24.3 µM for the first, 18.4 µM for the second.

CCN(CCO)CCCC(C)Nc1ccnc2cc(Cl)ccc12 (stereo not shown) [Hydroxychloroquine] and [NH2][Pt]1([NH2])[O]CC(=O)[O]1 [Nedaplatin] are within 1.5-fold of each other in IC50: 96 µM for the first, 86.4 µM for the second.

First: CCN[C@@H]1C[C@H](N)[C@@H](O[C@H]2OC(CN)=CC[C@H]2N)[C@H](O)[C@H]1O[C@H]1OC[C@](C)(O)[C@H](NC)[C@H]1O [Netimicin]
Second: NC[C@@H]1O[C@H](O[C@H]2[C@@H](O)[C@H](O[C@@H]3[C@@H](O)[C@H](N)C[C@H](N)[C@H]3O[C@H]3O[C@H](CO)[C@@H](O)[C@H](O)[C@H]3N)O[C@@H]2CO)[C@H](N)[C@@H](O)[C@@H]1O [Paromomycin]
The IC50 of the first is 1.6-fold lower: 2.9 µM for the first, 4.5 µM for the second. The first is the more potent here.

Compared with CN(C)Cc1ccc(S(=O)(=O)n2ccc(/C=C/C(=O)NO)c2)cc1 [Resminostat], NC[C@H]1O[C@H](O[C@H]2[C@H](O)[C@@H](O[C@H]3O[C@H](CO)[C@@H](O)[C@H](N)[C@H]3O)[C@H](N)C[C@@H]2N)[C@H](N)C[C@@H]1O [Tobramycin] is 22-fold lower in IC50: 64.5 µM for the first, 3 µM for the second. The second is the more potent here.

Going from CN1CCN(CCCN2c3ccccc3Sc3ccc(C(F)(F)F)cc32)CC1 [Trifluoperazine] to Capreomycin, the IC50 falls from 22.1 µM to 5.7 µM (3.9-fold). The second is the more potent here.

With Gentamicin Sulfate the IC50 was 2.3 µM.

These molecules were tested against T2, dengue virus helicase (Dengue virus type 2, UniProt P29990) (assay: Inhibition of dengue virus helicase activity). Conditions: not given.
T2 construct: dengue virus helicase activity
T2 sequence (P29990 1476-2093): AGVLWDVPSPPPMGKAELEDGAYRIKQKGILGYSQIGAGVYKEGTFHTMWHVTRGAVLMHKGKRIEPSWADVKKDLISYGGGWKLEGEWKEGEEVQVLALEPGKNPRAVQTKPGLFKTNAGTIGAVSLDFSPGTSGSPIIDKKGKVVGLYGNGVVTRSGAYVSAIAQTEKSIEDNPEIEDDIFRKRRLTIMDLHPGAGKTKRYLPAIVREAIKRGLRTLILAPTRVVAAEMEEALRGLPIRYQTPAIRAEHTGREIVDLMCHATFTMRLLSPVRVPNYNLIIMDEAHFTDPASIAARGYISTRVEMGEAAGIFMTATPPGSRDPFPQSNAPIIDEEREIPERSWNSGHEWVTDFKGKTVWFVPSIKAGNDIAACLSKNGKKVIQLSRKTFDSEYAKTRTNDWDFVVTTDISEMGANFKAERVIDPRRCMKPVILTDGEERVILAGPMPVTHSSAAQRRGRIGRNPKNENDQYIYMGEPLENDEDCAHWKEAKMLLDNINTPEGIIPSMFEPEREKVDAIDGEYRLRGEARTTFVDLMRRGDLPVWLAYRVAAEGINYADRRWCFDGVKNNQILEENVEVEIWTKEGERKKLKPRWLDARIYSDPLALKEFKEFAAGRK
Format: biochemical
From the text: A degree of inhibition of dengue virus helicase activity depending on the concentrations of 6 compounds was confirmed (IC50 values presented, FIG. 4).

CC(=O)OCC1=C(C(=O)O)N2C(=O)[C@@H](NC(=O)Cc3cccs3)[C@H]2SC1 [Cephalothin] and O=C1Nc2ccc(Cl)cc2[C@@](C#CC2CC2)(C(F)(F)F)O1 [Efavirenz] are within 1.5-fold of each other in IC50: 26 µM for the first, 38.5 µM for the second.

For CCCCCOc1ccc(-c2cc(-c3ccc(C(=O)N[C@H]4C[C@@H](O)[C@@H](O)NC(=O)[C@@H]5[C@@H](O)[C@@H](C)CN5C(=O)[C@H]([C@H](O)CC(N)=O)NC(=O)[C@H]([C@H](O)[C@@H](O)c5ccc(O)c(OS(=O)(=O)O)c5)NC(=O)[C@@H]5C[C@@H](O)CN5C(=O)[C@H]([C@@H](C)O)NC4=O)cc3)no2)cc1 [Micafungin] (X1-[Orn(4R-OH,5R-OH)]T[Hyp][hTyr(3S-OH,4S-OH,3'-OSO3H)][Gln(3R-OH)][Pro(3S-OH,4S-Me)]; lactam 1-C), the IC50 was 5 µM.

Same assay, conditions: dengue virus helicase activity; read-out: IC50, inhibitory target enzyme Helicase

CCCCCCCCCCCCCCCCOP(=O)([O-])OCC[N+](C)(C)C [Miltefosine] and C[C@@H]1[C@H](O)[C@@H](C)/C=C/C=C/CC/C=C/C=C/C=C/C=C/C(O[C@H]2O[C@H](C)[C@@H](O)[C@H](N)[C@@H]2O)CC2O[C@](O)(CC(O)C(O)CCC(O)CC(O)CC(O)CC(=O)O[C@H]1C)CC(O)C2C(=O)O (stereo partly shown) [Nystatin] are within 1.5-fold of each other in IC50: 17.5 µM for the first, 13.1 µM for the second.

For Bleomycin, the IC50 was 1.4 µM.
